The term solubility (kinetic) denotes the concentration staying in solution when a stock, usually in DMSO, is diluted into the medium.

Each structure is given as a SMILES string. ≈ marks a conversion by molar mass, not a printed value.

For this data set the following is noted: buffer; pH 7.4; 200.0 µM.
In the case of `Cc1ccccc1OCC(=O)OC(C)C(=O)NC1CCCC1` (stereo not given), the kinetic solubility is over 45.8 µg/mL.
The molecule `COc1ccc(NS(=O)(=O)c2cccc(C(=O)OCC(=O)c3c(N)n(C)c(=O)n(C)c3=O)c2)cc1` registered a kinetic solubility of 16.4 µg/mL (≈ 32.6 µM).
`CCCc1cnc(N2CCN(C(=O)c3c(-c4ccccc4)noc3C)CC2)nc1` returned a solubility (kinetic) of 40.7 µg/mL (≈ 104 µM).
On to `Cc1ccc2cc(CCl)c(Cl)nc2c1`, for which the solubility (kinetic) turned out to be 3.7 µg/mL (≈ 16.4 µM).
Take `Cc1cccc(NC(=O)c2ccc(COc3ccccc3)o2)n1`: the solubility (kinetic) amounted to 4.8 µg/mL (≈ 15.6 µM). This solubility kinetic and that of the molecule before are within 1.5-fold of each other.
Take `Cc1ccccc1NC(=S)Nc1cccc2cnccc12`: the kinetic solubility stood at 34.2 µg/mL (≈ 117 µM).
`CC(=O)N/C(N)=N/c1nc2cc(C)ccc2o1` showed a solubility (kinetic) of 3.3 µg/mL (≈ 14.2 µM).
As for `O=C1NCCO1`, the figure is over 13.1 µg/mL.
Turning to `CCCCc1c(C)nc(N2CCCC2)[nH]c1=O`, the solubility (kinetic) was over 35.3 µg/mL.
Molecule `Cc1cc(C)n2nc(SC(C)C(=O)N(C)C3CCCCC3)nc2n1` (stereo not given) had a kinetic solubility of over 52.1 µg/mL.
On to `O=C1CNC(=S)N1C(CO)c1ccccc1` (stereo not given), for which the kinetic solubility is over 35.4 µg/mL.
`c1ccc(CNc2ncnc3scc(-c4cccs4)c23)nc1` had a kinetic solubility of 37.2 µg/mL (≈ 115 µM).
Regarding `O=C(NNC(=O)C1CCN(S(=O)(=O)c2ccccc2)CC1)c1ccccc1O`, the kinetic solubility was over 60.5 µg/mL.
As for `COC(=O)c1cccc(NC(=S)N2CCN(C)CC2)c1`, the figure is 41.9 µg/mL (≈ 143 µM); as for `Cc1ccc(NC(=O)C[n+]2cc(-c3ccccc3)n3c2CCC3)c(C)c1.[Cl-]`, 55.4 µg/mL; as for `CN(C(=O)CSc1nc2ccccc2c(=O)n1-c1ccccc1Cl)C1CCS(=O)(=O)C1` (stereo not given), 71.1 µg/mL (≈ 149 µM).
As for `Cc1ccc2nc(-c3ccccc3)c(CN3CCOCC3)n2c1`, the figure is over 46.1 µg/mL; as for `Cc1ccccc1C(=O)Nc1ccc(N2CCCC2)cc1.Cl`, 7.8 µg/mL; as for `CCNC(=S)NC1CC2CCCC(C1)N2Cc1ccc(C)cc1` (stereo not given), 47.7 µg/mL (≈ 144 µM).
For the molecule `Oc1ccc2ccccc2c1CNc1ccccn1`, the solubility (kinetic) was determined as 9.4 µg/mL (≈ 37.6 µM). This solubility kinetic is about 5.1-fold lower than that of the molecule before.
As to `Cc1cc(C(=O)N2CCN(c3ccc([N+](=O)[O-])cc3)CC2)co1`, the solubility (kinetic) was over 47.3 µg/mL.
`O=C(NCCN1CCCCC1)Nc1ccc(F)cc1` came in with a kinetic solubility of 37.4 µg/mL (≈ 141 µM).
Consider `O=C(O)c1ccn(COc2ccc(Br)cc2)n1`, for which the solubility (kinetic) was over 44.6 µg/mL.
Consider `CCC(=O)Nc1cccc2cccnc12`, for which the kinetic solubility was determined as 25 µg/mL (≈ 125 µM).
Regarding `NC(=O)c1oc2ccccc2c1NC(=O)Cc1ccccc1`, the solubility (kinetic) is 43.7 µg/mL (≈ 148 µM).
As for `CC12CCC(C[N+](C)(C)C1)C2(C)C.[I-]` (stereo not given), the figure is over 46.4 µg/mL.
The molecule `O=C(Nc1cc(S(=O)(=O)N2CCOCC2)ccc1N1CCOCC1)c1ccccc1[N+](=O)[O-]` had a solubility (kinetic) of over 71.5 µg/mL.
`Cc1ccc(C(OC(=O)c2ccco2)C(=O)NC(C)(C)C)cc1` (stereo not given) yielded a solubility (kinetic) of 17 µg/mL (≈ 53.9 µM).
Regarding `CCC(C)(C)NC(=O)COc1ccc(OCc2ccccc2)cc1`, the kinetic solubility amounted to 9 µg/mL (≈ 27.5 µM). Compared with the last molecule, the solubility kinetic is about 1.9-fold lower.
Regarding `Cc1cccc(C(=O)NCCC(=O)Nc2ccc(C#N)cc2)c1`, the kinetic solubility amounted to 1.3 µg/mL (≈ 4.23 µM). Against the preceding molecule, the solubility kinetic is about 6.9-fold lower.
Consider `CC(NC(=O)c1cc(-c2ccccc2)nc2ccccc12)C1CCCO1` (stereo not given), for which the solubility (kinetic) was over 52 µg/mL.
Turning to `O=C(NC1C2CC3CC(C2)CC1C3)c1ccc(Br)o1` (stereo not given), the solubility (kinetic) is 27.8 µg/mL (≈ 85.7 µM).
As for `Cn1c(=O)c(=O)n(C)c2cc([N+](=O)[O-])c([N+](=O)[O-])cc21`, the figure is over 42 µg/mL; as for `Cc1nnc(-c2cnn(C)c2N)n1CCCN1CCOCC1`, over 45.8 µg/mL; as for `COc1cccc(C(=O)Nc2cccc3cccnc23)c1OC`, under 0.3 µg/mL.
As for `COC(=O)c1cc(NC(=O)c2ccc(F)cc2)cc(C(=O)OC)c1`, the solubility (kinetic) stood at 4.9 µg/mL (≈ 14.8 µM).
The molecule `CC(=O)Nc1cccc(OCCCNS(=O)(=O)c2ccc(C#N)cc2)c1` registered a kinetic solubility of over 56 µg/mL.
In turn, `CCc1ccccc1NC(=O)CCS(=O)(=O)c1ccc(OC)cc1` displayed a solubility (kinetic) of 26.4 µg/mL (≈ 76 µM).
For `COc1ccc2c(c1)CC/C2=N\OC(=O)c1ccccc1C`, the solubility (kinetic) was under 0.6 µg/mL.
Turning to `O=C(NC(=S)Nc1ccc(Br)cc1)C1CCC1`, the kinetic solubility came out at 2.6 µg/mL (≈ 8.3 µM).
As to `O=C(Nc1nc2ccccc2[nH]1)c1ccc(OC(F)F)cc1`, the kinetic solubility came out at 2.4 µg/mL (≈ 7.91 µM).
In the case of `Cc1cccc(Nc2nc(-c3ccc(F)c(C)c3)cs2)n1`, the solubility (kinetic) is under 0.2 µg/mL.
Turning to `Cc1cc2c(SCC(=O)NC3CCCC3)ncnc2s1`, the solubility (kinetic) was 30.2 µg/mL (≈ 98.2 µM).
The molecule `COc1ccccc1C1CCN(Cc2c(C)[nH]c3ccccc23)CC1` yielded a kinetic solubility of over 50.2 µg/mL.
Take `CCC(=NC(C)c1ccccc1)c1c(O)[nH]c(=O)[nH]c1=O` (stereo not given): the kinetic solubility was over 43.1 µg/mL.
`NC(=S)Nc1ccc(Cl)c(Cl)c1` displayed a kinetic solubility of over 33.2 µg/mL.
Take `CN1CCCC(OC(=O)c2cccc(Cl)c2)C1.Cl` (stereo not given): the solubility (kinetic) is over 43.5 µg/mL.
In turn, `Cc1ccccc1C(=O)N1CCN(C(c2ccccc2)c2ccccc2)CC1.Cl` had a kinetic solubility of 7.8 µg/mL.
As for `O=C(CNC(=O)c1ccccc1)Oc1ccc([N+](=O)[O-])cc1`, the figure is over 45 µg/mL; as for `Cc1ccccc1NC(=O)COc1ccc2c(c1)OC(C)(C)CC2=O`, under 0.7 µg/mL; as for `CC1CC(C)(C)Nc2ccc(N=O)cc21` (stereo not given), over 30.6 µg/mL.
For `COCc1cc(OC(=O)N(C)C)nc(-c2ccc(C)c(Cl)c2)n1`, the kinetic solubility was found to be 0.7 µg/mL (≈ 2.08 µM).
`O=C(NC(=S)NCc1cccnc1)c1cc(Br)ccc1Cl`: the solubility (kinetic) was 0.9 µg/mL (≈ 2.34 µM).
Consider `CS(=O)(=O)c1ccc(C(=O)NC2CCCc3ccccc32)cc1` (stereo not given), for which the solubility (kinetic) turned out to be 35.2 µg/mL (≈ 107 µM). Compared with the last molecule, the solubility kinetic is about 39-fold higher.
`O=C(COC(=O)CCSc1ccc(F)cc1)NCc1ccc(F)cc1` registered a solubility (kinetic) of 26.5 µg/mL (≈ 72.5 µM).
Molecule `O=c1[nH]cnc2onc(-c3ccc(F)cc3)c12` had a kinetic solubility of over 34.7 µg/mL.
In turn, `COc1nccc(NCc2ccccc2)c1C#N` gave a solubility (kinetic) of 20.1 µg/mL (≈ 84 µM).
Regarding `NC(=O)c1cccc(-c2cccc(OC(=O)NC3CCCCC3)c2)c1`, the kinetic solubility was under 0.4 µg/mL.
Take `Cc1ccc(SCC(=O)OCC(=O)NCCc2ccc(S(N)(=O)=O)cc2)c(C)c1`: the solubility (kinetic) amounted to 51.3 µg/mL (≈ 118 µM).
As for `C=CCNc1nc(C(=O)OC(C)C(=O)c2ccc(C)cc2)cs1` (stereo not given), the figure is 8.8 µg/mL (≈ 26.6 µM).
Molecule `COc1cc(/C=C/C(=O)OCC(=O)NC(=O)C2COc3ccccc3O2)ccc1OC(F)F` (stereo not given) had a solubility (kinetic) of 15.4 µg/mL (≈ 33.2 µM).
`c1ccc(NC2=NCCS2)cc1` showed a solubility (kinetic) of 23.5 µg/mL (≈ 132 µM).
For `COc1ccc(CCNC(=O)c2ccnc(C(C)(C)C)c2)cc1OC`, the kinetic solubility is over 51.4 µg/mL.
The molecule `Cc1ccc(S(=O)(=O)N2CCN(c3ncccn3)CC2)c(C)c1` returned a kinetic solubility of 1.8 µg/mL (≈ 5.41 µM).
Consider `Nc1nc(NCCN2CCOCC2)nc(NCc2ccccc2)c1[N+](=O)[O-]`, for which the solubility (kinetic) stood at 12 µg/mL (≈ 32.1 µM).
Turning to `CC(=O)Oc1ccc2nc(/C=C/c3ccccc3)oc(=O)c2c1`, the solubility (kinetic) is 0.9 µg/mL (≈ 2.93 µM).
For the molecule `CC(=O)Nc1ccc(NC(=O)c2cccc3ccccc23)cc1`, the solubility (kinetic) amounted to 1.7 µg/mL (≈ 5.59 µM).
As for `COC(=O)/C(C#N)=C/N(C)C`, the figure is over 23.1 µg/mL; as for `CC1C(=O)N2CCCc3cc(NS(C)(=O)=O)cc1c32` (stereo not given), 40.3 µg/mL (≈ 144 µM).
The molecule `O=C(CNC(=O)c1ccc(Br)o1)NCc1cccc(Cl)c1` yielded a solubility (kinetic) of 55.5 µg/mL (≈ 149 µM). The solubility kinetic values of the last two molecules are within 1.5-fold of each other.
In turn, `COc1cccc(Nc2nc(N)nc(CCl)n2)c1` had a solubility (kinetic) of over 39.9 µg/mL.
For `Cn1c(=O)c2c(nc(Oc3ccccc3N)n2C)n(C)c1=O`, the kinetic solubility is over 45.2 µg/mL.
In turn, `Cc1ccc(C)n1-c1ccc(C#N)cn1` had a solubility (kinetic) of 26.6 µg/mL (≈ 135 µM).
Regarding `NC1=NC(=O)/C(=C/c2cccc(F)c2)S1`, the solubility (kinetic) came out at 2.7 µg/mL (≈ 12.1 µM). Against the preceding molecule, the solubility kinetic is about 9.9-fold lower.
In the case of `COc1ccc(NC(=O)O/N=C/c2ccccc2)cc1`, the kinetic solubility stood at 5 µg/mL (≈ 18.5 µM).

Source of the values: PubChem BioAssay AID1996.
